ChEMBL document CHEMBL1154476 (Eur J Med Chem, 2008)

Target: T1, Ribosyldihydronicotinamide dehydrogenase [quinone] (Homo sapiens, UniProt P16083)
T1 sequence (P16083 whole entry): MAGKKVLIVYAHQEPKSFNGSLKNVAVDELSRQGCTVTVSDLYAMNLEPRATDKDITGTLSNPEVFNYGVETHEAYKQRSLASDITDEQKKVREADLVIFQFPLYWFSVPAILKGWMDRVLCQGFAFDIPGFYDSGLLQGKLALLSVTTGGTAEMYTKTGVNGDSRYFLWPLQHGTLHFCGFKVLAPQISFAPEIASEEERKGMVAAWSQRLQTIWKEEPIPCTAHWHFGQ
Experiment: Displacement of [125I]iodomelatonin from MT3/QR2 melatonin binding site expressed in CHO cells
Type: cell-based

IC50 [nM] | SMILES
70.8 | COc1ccc2c(CCNC(=O)C3CCC3)cccc2c1
1.2 | COc1ccc2[nH]cc(CCNC(C)=O)c2c1[N+](=O)[O-]
64.6 | COc1ccc2occ(CCNC(C)=O)c2c1
2.82 | COc1ccc2c(c1)c(CCNC(C)=O)cn2C
28.8 | COc1ccc2cccc(CCNC(=O)c3ccccc3)c2c1
43.7 | COc1ccc2cccc(CCNC(=O)C(C)C)c2c1
41.7 | CC(=O)NCCc1c[nH]c2ccc([N+](=O)[O-])cc12
28.2 | CS(=O)(=O)NCCc1cccc2ccccc12
15.8 | COC(=O)Nc1ccc2occ(CCNC(C)=O)c2c1
67.6 | COC(=O)Nc1ccc2occ(CCNC(=O)c3ccccc3)c2c1
12 | CNC(=O)c1ccc2cccc(CNC(C)=O)c2c1
37.2 | CC(=O)NCCc1cccc2ccc([S+](C)[O-])cc12 (centres undefined)
24 | COC(=O)Nc1ccc2cccc(CNC(=O)C3CC3)c2c1
18.2 | CSc1ccc2cccc(CCNC(C)=O)c2c1
3.02 | CCOC(=O)c1[nH]c2ccc(OC)cc2c1CCNC(C)=O
61.7 | COc1ccc2cccc(CC3=NC(=O)NC3=O)c2c1
14.1 | COc1ccc2cccc(CCN3CCOC3=O)c2c1

IC50 [nM] | SMILES
53.7 | COc1ccc2cccc(CCNC(=O)c3ccco3)c2c1
11 | O=C(NCCc1cccc2ccc(O)cc12)c1ccco1
32.4 | CC(=O)NCCc1cccc2ccc(S(N)(=O)=O)cc12
51.3 | CC(C)(C)OC(=O)NCCc1cccc2ccc(O)cc12
9.12 | CNS(=O)(=O)c1ccc2cccc(CCNC(=O)c3ccco3)c2c1
20.9 | CC(=O)NCCc1cccc2ccc(S(C)(=O)=O)cc12
7.76 | C=CCC(=O)NCCc1cccc2ccc(O)cc12
52.5 | COC(=O)c1ccc2cccc(CNC(=O)c3ccco3)c2c1
11 | C=CCC(=O)NCCc1coc2ccc(NC(=O)OC)cc12
18.2 | COC(=O)c1ccc2occ(CCNC(=O)C3CCCC3)c2c1
14.1 | COC(=O)c1ccc2occ(CCNC(C)=O)c2c1
67.6 | NC(=O)c1ccc2occ(CCNC(=O)c3ccco3)c2c1
61.7 | COc1ccc2cccc(CCNC(=O)CN3CCCC3=O)c2c1
0.302 | COC(=O)Nc1ccc2[nH]c(I)c(CCNC(C)=O)c2c1
22.9 | COC(=O)Nc1ccc2occ(CCNC(=O)C(C)C)c2c1
56.2 | COC(=O)Nc1ccc2occ(CCNC(=O)c3ccco3)c2c1
0.309 | COc1ccc2c(c(CCNC(C)=O)cn2C)c1[N+](=O)[O-]
